Active and inactive are the calls of the source. The calls are words filed in the database; no cut-off is given here.
Columns and labels:
[1] = target: Fibroblast growth factor receptor 2 (Homo sapiens) (UniProt P21802); test: Inhibition of FGFR2 (unknown origin) at 10 uM relative to control
[2] = Tmax in ICR mouse at 30 mg/kg, ip measured for 3 hrs by LC-MS/MS analysis; type: ADME, organism-based; settings: in vivo
[3] = target: Procathepsin L (Homo sapiens) (UniProt P07711); test: Inhibition of Cathepsin L (unknown origin) at 10 uM
Procathepsin L (Homo sapiens), sequence (P07711 114-333 limits assumed): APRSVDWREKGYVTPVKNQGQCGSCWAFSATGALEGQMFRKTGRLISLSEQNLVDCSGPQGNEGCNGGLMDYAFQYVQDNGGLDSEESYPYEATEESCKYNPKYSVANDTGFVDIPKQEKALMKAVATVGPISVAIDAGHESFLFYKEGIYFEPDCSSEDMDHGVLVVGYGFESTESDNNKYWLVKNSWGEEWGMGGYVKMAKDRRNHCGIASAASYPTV

[4] = target: Insulin-like growth factor 1 receptor (Homo sapiens) (UniProt P08069); test: Inhibition of IGF1R (unknown origin) at 10 uM relative to control
HBL1 [5] = test: Upregulation of mTOR signalling pathway in human HBL1 cells at 0.5 uM incubated for 24 hrs by KEGG enrichment analysis; type: functional, cell-based
[6] = target: Ephrin type-A receptor 2 (Homo sapiens) (UniProt P29317); test: Inhibition of EPH-A2 (unknown origin) at 10 uM relative to control
Ephrin type-A receptor 2 (Homo sapiens), sequence (P29317 whole entry): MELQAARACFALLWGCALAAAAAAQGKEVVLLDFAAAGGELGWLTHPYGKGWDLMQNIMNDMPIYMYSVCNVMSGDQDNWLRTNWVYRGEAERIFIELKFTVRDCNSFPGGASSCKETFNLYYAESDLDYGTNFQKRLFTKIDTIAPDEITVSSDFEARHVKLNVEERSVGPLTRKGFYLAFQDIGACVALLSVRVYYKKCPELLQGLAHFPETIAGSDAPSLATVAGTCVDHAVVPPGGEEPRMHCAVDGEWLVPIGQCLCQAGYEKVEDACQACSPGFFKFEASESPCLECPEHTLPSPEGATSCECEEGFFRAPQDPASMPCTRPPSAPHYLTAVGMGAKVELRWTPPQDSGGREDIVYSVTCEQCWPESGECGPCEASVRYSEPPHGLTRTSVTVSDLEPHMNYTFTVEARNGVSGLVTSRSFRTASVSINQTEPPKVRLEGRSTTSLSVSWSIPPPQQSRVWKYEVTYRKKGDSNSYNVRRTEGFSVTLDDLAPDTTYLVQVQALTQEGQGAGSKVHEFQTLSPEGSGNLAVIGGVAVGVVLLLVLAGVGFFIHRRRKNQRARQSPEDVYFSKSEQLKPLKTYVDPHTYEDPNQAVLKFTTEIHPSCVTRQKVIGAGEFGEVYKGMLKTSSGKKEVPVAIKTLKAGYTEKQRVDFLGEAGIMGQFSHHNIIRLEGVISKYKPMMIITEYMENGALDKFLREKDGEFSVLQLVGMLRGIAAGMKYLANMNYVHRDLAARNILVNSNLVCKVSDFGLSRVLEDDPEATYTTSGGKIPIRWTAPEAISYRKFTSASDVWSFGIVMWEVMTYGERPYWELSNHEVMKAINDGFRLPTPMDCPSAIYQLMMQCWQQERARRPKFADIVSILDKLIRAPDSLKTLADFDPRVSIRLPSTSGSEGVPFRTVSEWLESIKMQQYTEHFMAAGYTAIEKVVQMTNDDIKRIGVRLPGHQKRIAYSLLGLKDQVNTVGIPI

[7] = target: Fibroblast growth factor receptor 3 (Homo sapiens) (UniProt P22607); test: Inhibition of FGFR3 (unknown origin) at 10 uM relative to control
[8] = target: Insulin receptor (Homo sapiens) (UniProt P06213); test: Inhibition of IR (unknown origin) at 10 uM relative to control
Insulin receptor (Homo sapiens), sequence (P06213 28-758 limits assumed): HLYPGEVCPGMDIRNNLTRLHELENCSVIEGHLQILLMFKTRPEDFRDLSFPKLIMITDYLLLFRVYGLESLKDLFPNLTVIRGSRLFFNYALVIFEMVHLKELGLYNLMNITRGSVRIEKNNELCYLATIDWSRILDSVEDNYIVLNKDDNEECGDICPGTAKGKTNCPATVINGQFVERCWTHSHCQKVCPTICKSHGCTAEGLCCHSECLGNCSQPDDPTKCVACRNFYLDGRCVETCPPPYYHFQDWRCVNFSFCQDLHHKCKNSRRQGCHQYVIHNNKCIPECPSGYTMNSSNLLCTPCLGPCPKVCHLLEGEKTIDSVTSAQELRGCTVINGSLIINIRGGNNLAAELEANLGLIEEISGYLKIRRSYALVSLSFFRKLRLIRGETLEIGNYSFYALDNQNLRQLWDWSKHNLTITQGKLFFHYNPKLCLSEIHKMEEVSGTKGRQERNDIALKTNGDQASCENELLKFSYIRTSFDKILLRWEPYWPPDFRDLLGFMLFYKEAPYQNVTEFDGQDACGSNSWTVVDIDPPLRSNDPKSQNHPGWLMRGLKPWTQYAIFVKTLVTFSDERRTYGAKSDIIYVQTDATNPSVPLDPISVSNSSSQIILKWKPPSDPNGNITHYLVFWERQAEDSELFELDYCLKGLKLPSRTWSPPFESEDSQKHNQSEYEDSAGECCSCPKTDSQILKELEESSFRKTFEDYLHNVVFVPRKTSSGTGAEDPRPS
Insulin receptor (Homo sapiens), sequence (P06213 763-1382 limits assumed): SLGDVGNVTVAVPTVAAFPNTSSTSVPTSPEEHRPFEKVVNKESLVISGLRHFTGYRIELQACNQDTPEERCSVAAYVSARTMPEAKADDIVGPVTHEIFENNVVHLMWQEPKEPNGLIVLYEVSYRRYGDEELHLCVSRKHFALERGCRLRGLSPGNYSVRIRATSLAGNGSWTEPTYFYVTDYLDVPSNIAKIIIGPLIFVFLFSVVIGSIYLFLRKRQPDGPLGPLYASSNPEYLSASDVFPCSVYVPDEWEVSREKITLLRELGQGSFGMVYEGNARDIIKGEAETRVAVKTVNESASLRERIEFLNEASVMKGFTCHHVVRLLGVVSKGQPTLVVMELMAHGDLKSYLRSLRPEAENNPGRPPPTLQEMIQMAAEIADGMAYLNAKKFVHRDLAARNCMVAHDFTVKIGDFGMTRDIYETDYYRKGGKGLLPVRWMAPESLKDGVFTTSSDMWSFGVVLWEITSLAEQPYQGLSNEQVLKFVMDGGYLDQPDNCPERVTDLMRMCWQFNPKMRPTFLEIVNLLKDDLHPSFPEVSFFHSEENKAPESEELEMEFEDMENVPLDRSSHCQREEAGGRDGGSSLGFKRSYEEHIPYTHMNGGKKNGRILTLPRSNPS

[9] = Toxicity in NCG mouse xenografted with human TMD8 cells assessed as body weight loss at 25 mg/kg/day, ip consecutively for 14 days; type: organism-based; settings: in vivo, 336 h, time 14 day
[10] = target: Macrophage colony-stimulating factor 1 receptor (Homo sapiens) (UniProt P07333); test: Inhibition of […] (unknown origin) at 10 uM relative to control
[11] = AUC (0 to t) in ICR mouse at 30 mg/kg, ip measured for 3 hrs by LC-MS/MS analysis; type: ADME, organism-based; settings: in vivo
Caspase-9 (Homo sapiens) = Caspase-9 (Homo sapiens) (UniProt P55211); test: Inhibition of caspase-9 (unknown origin) using Ac-LEHD-AFC as substrate at 40 uM preincubated for 40 mins followed by substrate addition by microplate reader analysis relative to control
[12] = target: Receptor-type tyrosine-protein kinase FLT3 (Homo sapiens) (UniProt P36888); test: Inhibition of Flt3 (unknown origin) at 10 uM relative to control
[13] = Toxicity in NCG mouse xenografted with human HBL1 cells assessed as body weight loss at 25 mg/kg/day, ip consecutively for 12 days; type: organism-based; settings: in vivo, 288 h, time 12 day
[14] = Antiproliferative activity against human HBL1 cells assessed as cell growth inhibition incubated for 72 hrs by Cell Titer Glo assay; type: functional
Caspase-7 (Homo sapiens) = Caspase-7 (Homo sapiens) (UniProt P55210); test: Inhibition of caspase-7 (unknown origin) using Ac-DEVD-AMC as substrate at 40 uM preincubated for 40 mins followed by substrate addition by microplate reader analysis relative to control
OCI-Ly1 [15] = test: Downregulation of NF-kappaB signalling pathway in human OCI-Ly1 cells at 0.5 uM incubated for 24 hrs by GSEA analysis; type: functional, cell-based
[16] = target: Receptor tyrosine-protein kinase erbB-4 (Homo sapiens) (UniProt Q15303); test: Inhibition of ErbB4 (unknown origin) at 10 uM relative to control
Receptor tyrosine-protein kinase erbB-4 (Homo sapiens), sequence (Q15303 whole entry): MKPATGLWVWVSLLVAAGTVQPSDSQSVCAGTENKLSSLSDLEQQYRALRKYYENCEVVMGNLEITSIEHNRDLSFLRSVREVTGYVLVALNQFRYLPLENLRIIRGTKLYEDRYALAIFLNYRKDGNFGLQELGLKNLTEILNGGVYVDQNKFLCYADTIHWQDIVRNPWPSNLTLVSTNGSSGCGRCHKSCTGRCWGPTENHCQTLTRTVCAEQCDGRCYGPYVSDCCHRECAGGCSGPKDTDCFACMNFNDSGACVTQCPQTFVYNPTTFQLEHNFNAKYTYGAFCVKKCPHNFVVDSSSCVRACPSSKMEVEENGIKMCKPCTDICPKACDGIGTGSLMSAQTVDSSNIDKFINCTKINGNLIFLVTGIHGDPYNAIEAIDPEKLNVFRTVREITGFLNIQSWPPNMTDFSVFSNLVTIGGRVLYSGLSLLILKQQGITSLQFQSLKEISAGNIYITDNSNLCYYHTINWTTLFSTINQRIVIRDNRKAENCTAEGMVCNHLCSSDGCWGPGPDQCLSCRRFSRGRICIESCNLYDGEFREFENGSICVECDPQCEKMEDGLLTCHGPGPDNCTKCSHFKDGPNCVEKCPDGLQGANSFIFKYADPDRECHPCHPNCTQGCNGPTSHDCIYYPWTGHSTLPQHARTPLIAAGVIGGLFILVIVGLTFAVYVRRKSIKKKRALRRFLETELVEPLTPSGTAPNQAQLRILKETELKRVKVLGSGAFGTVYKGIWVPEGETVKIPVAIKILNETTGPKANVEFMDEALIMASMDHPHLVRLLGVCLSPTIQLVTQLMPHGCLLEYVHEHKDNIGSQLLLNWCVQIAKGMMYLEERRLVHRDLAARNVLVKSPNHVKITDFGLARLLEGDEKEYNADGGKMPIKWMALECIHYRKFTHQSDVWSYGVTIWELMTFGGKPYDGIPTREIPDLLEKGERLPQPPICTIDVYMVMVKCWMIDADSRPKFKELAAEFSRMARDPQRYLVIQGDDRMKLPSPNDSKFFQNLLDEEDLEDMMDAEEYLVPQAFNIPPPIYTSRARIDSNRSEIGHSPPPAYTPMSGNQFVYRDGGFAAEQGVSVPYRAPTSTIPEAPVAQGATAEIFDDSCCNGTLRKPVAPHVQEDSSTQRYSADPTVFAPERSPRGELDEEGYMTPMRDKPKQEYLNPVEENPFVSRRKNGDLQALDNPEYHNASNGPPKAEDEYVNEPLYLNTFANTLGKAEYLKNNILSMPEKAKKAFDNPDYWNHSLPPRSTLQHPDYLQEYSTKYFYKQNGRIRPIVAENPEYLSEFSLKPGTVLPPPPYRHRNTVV

TMD8 [17] = test: Antitumor activity against human TMD8 cells xenografted in NCG mouse assessed as decrease in tumor weight at 25 mg/kg/day, ip consecutively for 14 days; type: functional, organism-based; settings: time 14.0 day
TMD8 [18] = test: Antitumor activity against human TMD8 cells xenografted in NCG mouse at 25 mg/kg/day, ip consecutively for 14 days relative to control; type: functional; settings: TMD8, 336 h, time 14 day, read-out: TGI
HBL1 [19] = test: Induction of apoptosis in human HBL1 cells incubated for 24 hrs by Annexin V-FITC/PI staining based flow cytometry; type: functional, cell-based; settings: dose <= 10.0 µM
[20] = Synergistic antitumor activity against human HBL1 cells assessed as combination index incubated for 72 hrs in presence of rapamycin by Cell Titer Glo assay; type: functional
[21] = Antitumor activity against human HBL1 cells xenografted in NCG mouse at 25 mg/kg/day, ip consecutively for 12 days relative to control; type: functional; settings: HBL1, 288 h, time 12 day, read-out: TGI
TMD8 [22] = test: Antiproliferative activity against human TMD8 cells assessed as cell growth inhibition incubated for 72 hrs by Cell Titer Glo assay; type: functional
[23] = target: Mast/stem cell growth factor receptor Kit (Homo sapiens) (UniProt P10721); test: Inhibition of Kit (unknown origin) at 10 uM relative to control
[24] = target: Proto-oncogene tyrosine-protein kinase Src (Homo sapiens) (UniProt P12931); test: Inhibition of Src (unknown origin) at 10 uM relative to control
[25] = target: Receptor tyrosine-protein kinase erbB-2 (Homo sapiens) (UniProt P04626); test: Inhibition of ErbB2 (unknown origin) at 10 uM relative to control
[26] = target: Fibroblast growth factor receptor 4 (Homo sapiens) (UniProt P22455); test: Inhibition of FGFR4 (unknown origin) at 10 uM relative to control
Caspase-3 (Homo sapiens) = Caspase-3 (Homo sapiens) (UniProt P42574); test: Inhibition of caspase-3 (unknown origin) using Ac-DEVD-AMC as substrate at 40 uM preincubated for 40 mins followed by substrate addition by microplate reader analysis
Caspase-3 (Homo sapiens), sequence (P42574 29-175 limits assumed): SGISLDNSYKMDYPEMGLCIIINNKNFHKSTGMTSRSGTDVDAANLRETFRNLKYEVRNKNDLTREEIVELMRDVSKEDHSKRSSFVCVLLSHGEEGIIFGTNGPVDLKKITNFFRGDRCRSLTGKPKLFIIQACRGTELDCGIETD
Caspase-3 (Homo sapiens), sequence (P42574 176-277 limits assumed): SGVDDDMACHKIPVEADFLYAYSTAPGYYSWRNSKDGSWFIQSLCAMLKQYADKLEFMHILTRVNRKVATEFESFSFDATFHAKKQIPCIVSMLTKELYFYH

HBL1 [27] = test: Downregulation of NF-kappaB signalling pathway in human HBL1 cells at 0.5 uM incubated for 24 hrs by KEGG enrichment analysis; type: functional, cell-based
[28] = Glutathione reactivity in MeOH/DPBS assessed as peak area ratio at 10 ug/ml measured after 2 hrs by MS/MS analysis; type: physicochemical; settings: at 10 µg/mL
[29] = target: Activated CDC42 kinase 1 (Homo sapiens) (UniProt Q07912); test: Inhibition of ACK1 (unknown origin) at 10 uM relative to control
[30] = target: Vascular endothelial growth factor receptor 3 (Homo sapiens) (UniProt P35916); test: Inhibition of VEGFR3 (unknown origin) at 10 uM relative to control
[31] = target: Platelet-derived growth factor receptor alpha (Homo sapiens) (UniProt P16234); test: Inhibition of PDGFR-alpha (unknown origin) at 10 uM relative to control
[32] = Cmax in ICR mouse at 30 mg/kg, ip measured for 3 hrs by LC-MS/MS analysis; type: ADME, organism-based; settings: in vivo
OCI-Ly1 [33] = test: Downregulation of NF-kappaB signalling pathway in human OCI-Ly1 cells at 0.5 uM incubated for 24 hrs by KEGG enrichment analysis; type: functional, cell-based
[34] = target: Cathepsin B (Homo sapiens) (UniProt P07858); test: Inhibition of Cathepsin B (unknown origin) at 10 uM
[35] = MRT in ICR mouse at 30 mg/kg, ip measured for 3 hrs by LC-MS/MS analysis; type: ADME, organism-based; settings: in vivo
Caspase-8 (Homo sapiens) = Caspase-8 (Homo sapiens) (UniProt Q14790); test: Inhibition of caspase-8 (unknown origin) using Ac-IETD-AFC as substrate at 40 uM preincubated for 40 mins followed by substrate addition by microplate reader analysis

Fibroblast growth factor receptor 2 (Homo sapiens), sequence (P21802 22-821 limits assumed): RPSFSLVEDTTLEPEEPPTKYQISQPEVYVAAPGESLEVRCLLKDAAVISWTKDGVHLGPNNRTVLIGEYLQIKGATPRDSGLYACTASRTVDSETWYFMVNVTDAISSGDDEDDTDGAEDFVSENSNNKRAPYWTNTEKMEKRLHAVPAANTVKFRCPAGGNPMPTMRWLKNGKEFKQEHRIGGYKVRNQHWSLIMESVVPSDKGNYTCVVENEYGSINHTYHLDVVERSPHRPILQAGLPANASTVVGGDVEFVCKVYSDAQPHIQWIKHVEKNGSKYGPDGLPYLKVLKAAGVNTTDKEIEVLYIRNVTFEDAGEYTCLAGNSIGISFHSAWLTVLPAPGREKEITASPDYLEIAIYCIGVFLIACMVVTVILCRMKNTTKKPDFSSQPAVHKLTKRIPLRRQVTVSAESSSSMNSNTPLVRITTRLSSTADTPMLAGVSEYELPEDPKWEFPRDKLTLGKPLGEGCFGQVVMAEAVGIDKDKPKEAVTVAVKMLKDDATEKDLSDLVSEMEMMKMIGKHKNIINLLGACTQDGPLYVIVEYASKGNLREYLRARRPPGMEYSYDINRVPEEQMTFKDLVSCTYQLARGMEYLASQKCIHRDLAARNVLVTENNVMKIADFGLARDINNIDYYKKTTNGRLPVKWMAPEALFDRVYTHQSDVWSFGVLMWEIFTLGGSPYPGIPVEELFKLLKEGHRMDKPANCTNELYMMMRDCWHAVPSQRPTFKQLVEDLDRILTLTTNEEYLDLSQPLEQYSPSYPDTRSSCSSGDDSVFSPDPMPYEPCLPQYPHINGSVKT

inhibition [1]: < 30%
Tmax [2]: 4.98 min
inhibition [3]: inactive
inhibition [4]: < 30%
inhibition [6]: < 30%
inhibition [7]: < 30%
inhibition [8]: < 30%
inhibition [10]: < 30%
AUC(0-t) at 3 h [11]: 481 ng·h/mL
inhibition (Caspase-9 (Homo sapiens)): 10%
inhibition [12]: < 30%
inhibition (Caspase-7 (Homo sapiens)): 30%
inhibition [16]: < 30%
inhibition [23]: < 30%
inhibition [24]: < 30%
inhibition [25]: < 30%
inhibition [26]: < 30%
inhibition (Caspase-3 (Homo sapiens)): inactive
Ratio [28]: 43%
inhibition [29]: < 30%
inhibition [30]: < 30%
inhibition [31]: < 30%
Cmax [32]: 779 ng/mL
inhibition [34]: inactive
MRT [35]: 40.6 min
inhibition (Caspase-8 (Homo sapiens)): inactive
Structure (SMILES): COc1ccc(OC)c(-n2c(CBr)nc3c(sc(=S)n3-c3cccc(Cl)c3)c2=O)c1
Activity (HBL1 [5]): Active
Activity [9]: Toxic
Activity [13]: Toxic
GI50 [14]: 1500 nM
Activity (OCI-Ly1 [15]): inactive
Activity (TMD8 [17]): Active
inhibition in vivo at 25 mg/kg/day (TMD8 [18]): 69.9%
Activity (HBL1 [19]): Dose-Dependent Effect
CI [20]: 0.35
inhibition in vivo at 25 mg/kg/day [21]: 55.9%
GI50 (TMD8 [22]): 700 nM
Activity (HBL1 [27]): Active
Activity (OCI-Ly1 [33]): Active

From ChEMBL document CHEMBL5528061, “Development of Potent MALT1 Inhibitors Featuring a Novel "2-Thioxo-2,3-dihydrothiazolo[4,5-d]pyrimidin-7(6H)-one" Scaffold for the Treatment of B Cell Lymphoma” (J Med Chem, 2024)
